For 58 compounds, IC50 results are on record in patent US20150004134A1, “TREATMENT OF CANCER WITH HETEROCYCLIC INHIBITORS OF GLUTAMINASE” (Calithera Biosciences, Inc., priority 2012, published 2015).

The experiment relates to P493-6 (myc "on") cells. The experiment in a line: Cell Proliferation Assay. It counts as cell-based. The note with it: P493-6, 72 h, read-out: Cell prolif P493 72 h IC50, P493 cells, 72 h. The protocol:
P493-6 (myc “on”) cells were maintained in growth media (RPMI-1640, 10% FBS, 2 mM glutamine, 100 units/ml Penicillin and 100 μg/ml streptomycin) at 37° C. with 5% CO2. For compound assay, P493-6 cells were plated in 96-well V-bottom plates on the day of compound addition in 50 μl of growth media at a cell density of 200,000 cells/ml (10,000 cells/well). Compounds were serially diluted in 100% DMSO at 200-times the final concentration. Compounds were diluted 100-fold into growth media and then 50 μl of this mixture was added to cell plates making the final concentration of DMSO 0.5%. Cells were incubated with compound for 72 hrs at 37° C. with 5% CO2 and analyzed for antiproliferative effects either by Cell Titer Glo (Promega) or FACS analysis using the Viacount (Millipore) kit on the Guava instrument.
For `COc1ccc(CC(=O)Nc2nnc(CCSCCc3nnc(NC(=O)Cc4ccc(OC)cc4)s3)s2)cc1` [Compound 161], the IC50 was 1.4 µM. Consider `CN(C)c1ccc(CC(=O)Nc2nnc(CCSCCc3nnc(NC(=O)Cc4ccc(N(C)C)cc4)s3)s2)cc1` [Compound 162], for which the IC50 stood at 0.15 µM. As for `CN(C)c1ccc(CC(=O)Nc2nnc(CCCCc3nnc(NC(=O)Cc4ccc(N(C)C)cc4)s3)s2)cc1` [Compound 164], the IC50 stood at 0.13 µM.

`COCC(C(=O)Nc1nnc(CCCCc2nnc(NC(=O)C(COC)c3ccccc3)s2)s1)c1ccccc1` (stereo not shown) [Compound 165]: the IC50 worked out at 33 µM.

On to `O=C(Nc1nnc(CCCCc2nnc(NC(=O)C3(c4ccccc4)CCOCC3)s2)s1)C1(c2ccccc2)CCOCC1` [Compound 166], for which the IC50 turned out to be 6.8 µM. As for `O=C(Nc1nnc(CCCCc2nnc(NC(=O)C3(c4cccs4)CCOCC3)s2)s1)C1(c2cccs2)CCOCC1` [Compound 167], the IC50 was determined as 34 µM. With `O=C(Nc1nnc(CCCCc2nnc(NC(=O)C3(c4ccccc4)CC3)s2)s1)C1(c2ccccc2)CC1` [Compound 168], the IC50 was > 50 µM. The value for `O=C(Nc1nnc(CCCCc2nnc(NC(=O)[C@H](O)Cc3ccccc3)s2)s1)[C@H](O)Cc1ccccc1` [Compound 169] was 3.4 µM. The value for `O=C(Nc1nnc(CCCc2nnc(NC(=O)C(O)Cc3ccccc3)s2)s1)C(O)Cc1ccccc1` (stereo not shown) [Compound 170] was 9.3 µM; that for `O=C(Nc1nnc(CCCc2nnc(NC(=O)C(O)c3ccccc3)s2)s1)C(O)c1ccccc1` (stereo not shown) [Compound 172] was 3.7 µM; that for `CC(=O)OC(C(=O)Nc1nnc(CCCCc2nnc(NC(=O)C(OC(C)=O)c3ccccc3)s2)s1)c1ccccc1` (stereo not shown) [Compound 173] was 0.76 µM.

For `O=C(Nc1nnc(CCCCc2nnc(NC(=O)C(O)c3ccccc3)s2)s1)C(O)c1ccccc1` (stereo not shown) [Compound 174], the IC50 is 0.44 µM.

For `N[C@H](C(=O)Nc1nnc(CCSCCc2nnc(NC(=O)[C@@H](N)c3ccccc3)s2)s1)c1ccccc1` [Compound 175], the IC50 was found to be 23 µM.

Consider `O=C(Nc1nnc(CCCc2nnc(NC(=O)C(CO)c3ccccc3)s2)s1)C(CO)c1ccccc1` (stereo not shown) [Compound 176], for which the IC50 was determined as 1.5 µM. To `O=C(CC(C(=O)O)c1ccccc1)Nc1nnc(CCCCc2nnc(NC(=O)CC(C(=O)O)c3ccccc3)s2)s1` (stereo not shown) [Compound 177] belongs > 50 µM; to `COC(=O)C(CC(=O)Nc1nnc(CCCCc2nnc(NC(=O)CC(C(=O)O)c3ccccc3)s2)s1)c1ccccc1` (stereo not shown) [Compound 178], > 50 µM; to `O=C(CCC(C(=O)O)c1ccccc1)Nc1nnc(CCSCCc2nnc(NC(=O)CCC(C(=O)O)c3ccccc3)s2)s1` (stereo not shown) [Compound 179], > 50 µM. As for `O=C(Nc1nnc(CCSCCc2nnc(NC(=O)c3ccccc3CO)s2)s1)c1ccccc1CO` [Compound 180], the IC50 was > 50 µM.

For `O=C(Cc1ccccc1CO)Nc1nnc(CCSCCc2nnc(NC(=O)Cc3ccccc3CO)s2)s1` [Compound 181, N,N′-(5,5′-(thiobis(ethane-2,1-diyl))bis(1,3,4-thiadiazole-5,2-diyl))bis(2-(2-(hydroxymethyl)phenyl)acetamide)], the IC50 stood at 30 µM. The value for `CS(=O)(=O)c1ccc(CC(=O)Nc2nnc(CCSCCc3nnc(NC(=O)Cc4ccc(S(C)(=O)=O)cc4)s3)s2)cc1` [Compound 182] was > 50 µM; that for `CC(C)(C)OC(=O)Nc1ccc(CC(=O)Nc2nnc(CCSCCc3nnc(NC(=O)Cc4ccc(NC(=O)OC(C)(C)C)cc4)s3)s2)cc1` [Compound 185] was 0.09 µM.

As to `N[C@@H](C(=O)Nc1nnc(CCCCc2nnc(NC(=O)[C@H](N)c3ccccc3)s2)s1)c1ccccc1` [Compound 186], the IC50 came to 13 µM.

With `N[C@H](C(=O)Nc1nnc(CCCCc2nnc(NC(=O)[C@@H](N)c3ccccc3)s2)s1)c1ccccc1` [Compound 187], the IC50 was determined as 21 µM. To `O=C(Nc1nnc(CCCCc2nnc(NC(=O)C(CO)c3cccs3)s2)s1)C(CO)c1cccs1` (stereo not shown) [Compound 190] belongs 0.49 µM; to `CC(C)(C)OC(=O)Nc1ccc(CC(=O)Nc2nnc(CCCCc3nnc(NC(=O)Cc4ccc(NC(=O)OC(C)(C)C)cc4)s3)s2)cc1` [Compound 192], 0.03 µM; to `Nc1ccc(CC(=O)Nc2nnc(CCSCCc3nnc(NC(=O)Cc4ccc(N)cc4)s3)s2)cc1` [Compound 195], 1.3 µM. The value for `Nc1ccc(CC(=O)Nc2nnc(CCCCc3nnc(NC(=O)Cc4ccc(N)cc4)s3)s2)cc1` [Compound 196] was 0.61 µM. For `NS(=O)(=O)c1ccc(CC(=O)Nc2nnc(CCCCc3nnc(NC(=O)Cc4ccc(S(N)(=O)=O)cc4)s3)s2)cc1` [Compound 198], the IC50 is > 50 µM. To `O=C(Cc1ccccc1)Nc1nnc(CCSCc2nnc(NC(=O)Cc3ccccc3)s2)s1` [Compound 199] belongs 0.17 µM.

Turning to `COCCOC(C(=O)Nc1nnc(CCCCc2nnc(NC(=O)C(OCCOC)c3ccccc3)s2)s1)c1ccccc1` (stereo not shown) [Compound 203], the IC50 stood at 1.7 µM. The value for `COCC(C(=O)Nc1nnc(CCSCCc2nnc(NC(=O)C(COC)c3ccccc3)s2)s1)c1ccccc1` (stereo not shown) [Compound 204] was 2.4 µM. The value for `O=C(Cc1ccccc1CO)Nc1nnc(CCCCc2nnc(NC(=O)Cc3ccccc3CO)s2)s1` [Compound 208] was 9 µM. The value for `C=CCC(C(=O)Nc1nnc(CCCCc2nnc(NC(=O)C(CC=C)c3ccccc3)s2)s1)c1ccccc1` (stereo not shown) [Compound 209] was 22 µM. Turning to `O=C(Nc1nnc(CCCCc2nnc(NC(=O)[C@@H](O)c3ccccc3Cl)s2)s1)[C@@H](O)c1ccccc1Cl` [Compound 210], the IC50 is 0.42 µM.

With `O=C(Nc1nnc(CCCCc2nnc(NC(=O)C(O)c3cccc(F)c3F)s2)s1)C(O)c1cccc(F)c1F` (stereo not shown) [Compound 211], the IC50 stood at 1 µM. To `O=C(Cn1ccc2ccccc21)Nc1nnc(CCSCCc2nnc(NC(=O)Cn3ccc4ccccc43)s2)s1` [Compound 213] belongs 4.4 µM; to `NCCC(C(=O)Nc1nnc(CCSCCc2nnc(NC(=O)C(CN)c3ccccc3)s2)s1)c1ccccc1` (stereo not shown) [Compound 214], 1.2 µM. To `N#Cc1ccc(CC(=O)Nc2nnc(CCSCCc3nnc(NC(=O)Cc4ccc(C#N)cc4)s3)s2)cc1` [Compound 216] belongs > 50 µM; to `NS(=O)(=O)c1ccc(CC(=O)Nc2nnc(CCSCCc3nnc(NC(=O)Cc4ccc(S(N)(=O)=O)cc4)s3)s2)cc1` [Compound 217], > 50 µM; to `COc1ccccc1CC(=O)Nc1nnc(CCSCCc2nnc(NC(=O)Cc3ccccc3OC)s2)s1` [Compound 219], 0.57 µM. The value for `COC(=O)C(C(=O)Nc1nnc(CCCCc2nnc(NC(=O)C(C(=O)OC)c3ccccc3)s2)s1)c1ccccc1` (stereo not shown) [Compound 220] was 0.31 µM; that for `O=C(Nc1nnc(CCCCc2nnc(NC(=O)[C@@H](O)[C@H](O)c3ccccc3)s2)s1)[C@@H](O)[C@H](O)c1ccccc1` [Compound 226] was > 50 µM. `Nc1nnc(CCCCc2nnc(NC(=O)C(CO)c3ccccc3)s2)s1` (stereo not shown) [Compound 227]: the IC50 worked out at 3.3 µM. To `O=C(CCN1CCOCC1)OCC(C(=O)Nc1nnc(CCCCc2nnc(NC(=O)C(CO)c3ccccc3)s2)s1)c1ccccc1` (stereo not shown) [Compound 228, 3-((5-{4-[5-(3-hydroxy-2-phenylpropanamido)-1,3,4-thiadiazol-2-yl]butyl}-1,3,4-thiadiazol-2-yl)amino)-3-oxo-2-phenylpropyl 3-morpholinopropanoate] belongs 0.13 µM; to `COC(=O)C(C(=O)Nc1nnc(CCSCCc2nnc(NC(=O)C(C(=O)OC)c3ccccc3)s2)s1)c1ccccc1` (stereo not shown) [Compound 234], 2.5 µM; to `O=C(Cc1cccc(OCCO)c1)Nc1nnc(CCSCCc2nnc(NC(=O)Cc3cccc(OCCO)c3)s2)s1` [Compound 236], 1.4 µM. The value for `O=C(Cc1cccs1)Nc1nnc(CCSCc2nnc(NC(=O)Cc3cccs3)s2)s1` [Compound 237] was 0.25 µM; that for `O=C(Cc1cccc(OCCN2CCOCC2)c1)Nc1nnc(CCSCCc2nnc(NC(=O)Cc3cccc(OCCN4CCOCC4)c3)s2)s1` [Compound 240] was 1.3 µM; that for `O=C(CN1C(=O)OC[C@H]1c1ccccc1)Nc1nnc(CCSCCc2nnc(NC(=O)CN3C(=O)OC[C@H]3c3ccccc3)s2)s1` [Compound 243] was 33 µM. The value for `COc1ccccc1C(CO)C(=O)Nc1nnc(CCSCCc2nnc(NC(=O)C(CO)c3ccccc3OC)s2)s1` (stereo not shown) [Compound 245] was 2.5 µM; that for `COc1ccccc1CC(=O)Nc1nnc(CCSCCc2nnc(NC(=O)C(CO)c3ccccc3OC)s2)s1` (stereo not shown) [Compound 246] was 1.6 µM; that for `Cc1cccc(CC(=O)Nc2nnc(CCSCCc3nnc(NC(=O)Cc4cccc(C)c4)s3)s2)c1` [Compound 247] was 0.83 µM. Consider `COc1ccccc1CC(=O)Nc1nnc(CCSCc2nnc(NC(=O)Cc3ccccc3OC)s2)s1` [Compound 249], for which the IC50 was found to be 0.16 µM. The value for `COCOCCOC(C(=O)Nc1nnc(CCCCc2nnc(NC(=O)C(OCCOCOC)c3ccccc3)s2)s1)c1ccccc1` (stereo not shown) [Compound 251] was 2.8 µM; that for `O=C(Nc1nnc(CCCCc2nnc(NC(=O)C(OCCO)c3ccccc3)s2)s1)C(OCCO)c1ccccc1` (stereo not shown) [Compound 252] was 6.3 µM; that for `COc1cccc(C(CO)C(=O)Nc2nnc(CCCCc3nnc(NC(=O)C(CO)c4cccc(OC)c4)s3)s2)c1` (stereo not shown) [Compound 257] was 0.073 µM.

For `COc1cccc(C(CO)C(=O)Nc2nnc(CCSCc3nnc(NC(=O)C(CO)c4cccc(OC)c4)s3)s2)c1` (stereo not shown) [Compound 258], the IC50 was determined as 0.18 µM. The value for `COc1cccc(CC(=O)Nc2nnc(CCSCCc3nnc(NC(=O)Cc4cccc(OC)c4OC)s3)s2)c1OC` [Compound 259] was 0.57 µM.

For orientation: IC50 means the point on the concentration scale where inhibition reaches its midpoint.
